Measured values published in publication PMC9739882, “Main Determinants Affecting the Antiproliferative Activity of Stilbenes and Their Gut Microbiota Metabolites in Colon Cancer Cells: A Structure–Activity Relationship Study” (International Journal of Molecular Sciences, 2022).
Like-named read-outs stand apart in the source and are kept apart here.

Key:
Caco-2 cells [1] = experiment: Cell cycle distribution in Caco-2 cells (flow cytometry); format: cell-based, human; details: Caco-2, 72 h, compound at its IC50 concentration, p < 0.05 vs control
Experimental: (§1) The effects of all the compounds at their corresponding IC50 values for 3 days of treatment on cell cycle distribution in Caco-2 cells were measured as described previously. Data are shown as the mean ± SD of 3 independent experiments (2 wells per treatment) for each time point. In addition, the apoptosis induction exerted by all the compounds at their corresponding IC50 values for 3 days of treatment was examined using the Annexin V/PI detection kit (Molecular Probes, ThermoFisher Scientific, Madrid, Spain) as described previously. Briefly, 20,000 Caco-2 cells per sample were analyzed by flow cytometry (Coulter, EPICS XL-MCL, Miami, FL, USA), and staurosporine 5 μM was used as a standard inducer of apoptosis. Finally, the percentage of alive (negative in both annexin V-FITC and PI), early apoptotic (positive in annexin V-FITC and negative in PI), late apoptotic (positive in both annexin V-FITC and PI), and necrotic cells (only positive in PI) was calculated. Data are shown as the mean ± SD of 3 independent experiments (2 wells per treatment) for each time point.

Caco-2 cells [2] = experiment: MTT antiproliferative assay in Caco-2 cells; format: cell-based, human; details: for IC50: Homo sapiens, Caco-2, antiproliferative, MTT, mean ± SD (n = 3)
Experimental: (§2) The cell lines were obtained from the American Type Culture Collection (ATCC, Rockville, MD, USA) and cultured according to the ATCC. The human colon cancer cell lines Caco-2 (p53-null) and HT-29 (mutant p53), and non-tumorigenic colon cells CCD18-Co (wild-type p53) were grown as reported elsewhere. All tested compounds were solubilized in DMSO (<0.5% in the culture medium) and filter-sterilized (0.2 μm) before addition to the culture media. […] The effects of the compounds on Caco-2, HT-29, and CCD18-Co cell viability and proliferation were measured using the MTT reduction assay according to Giménez-Bastida et al.. Data are presented as the mean ± standard deviation (SD) of at least three independent experiments (n = 2 wells for each compound (dose and time point) per experiment). Then, IC50 antiproliferative values were determined using a four-parameter logistic regression fit. The calculations were performed using the online tool Quest Graph^TM IC50 Calculator (AAT Bioquest, Inc., Sunnyvale, CA, USA (https://www.aatbio.com/tools/ic50-calculator, accessed on 26 April 2022).

HT-29 cells [3] = experiment: Phase-II metabolism of compounds by HT-29 cells (UPLC-QTOF-MS of culture media); format: in vitro ADME, human; details: 50 μM, 24 h incubation
Experimental: (§3) Briefly, cell culture supernatants were collected at the end of the experiment and analyzed to measure the presence and concentration of the tested compounds. First, ACN (200 μL) was added per 200 μL of culture media, vortexed, and centrifuged at 16,435× g for 10 min. The supernatant was then concentrated in a Speedvac® concentrator (Savant SPD 121P), and then the residue was redissolved in 100 μL of MeOH and filtered (0.45 μm) before analysis by UPLC-QTOF-MS.
(§4) Briefly, the analyses were performed on an Agilent 1290 Infinity UPLC system coupled to a 6550 Accurate-Mass quadrupole-time-of-flight (QTOF) mass spectrometer (Agilent Technologies, Waldbronn, Germany) using an electrospray interface (Jet Stream Technology). Chrysin was used as an internal control of the ionization signal. Spectra were acquired in the m/z range from 100 to 1100, in negative polarity mode (m/z^−) and an acquisition rate of 1.5 spectra/s. Data were processed using the Mass Hunter Qualitative Analysis software (version B.06.00, Agilent). […]
(§5) A direct comparison with the available standards was used to identify the different metabolites. […] In addition, using extracted ion chromatograms (EICs) for area calculation and quantification reduced the possibility of misinterpreting overlapping peaks.

Caco-2 cells [4] = experiment: Phase-II metabolism of compounds by Caco-2 cells (UPLC-QTOF-MS of culture media); format: in vitro ADME, human; details: 50 μM, 72 h incubation
Experimental: as §3, §4, §5

Caco-2 cells [5] = experiment: Apoptosis induction in Caco-2 cells (Annexin V/PI, flow cytometry); format: cell-based, human; details: Caco-2, 72 h, compound at its IC50 concentration
Experimental: as §1

HT-29 cells [6] = experiment: MTT antiproliferative assay in HT-29 cells; format: cell-based, human; details: for IC50: Homo sapiens, HT-29, antiproliferative, MTT, mean ± SD (n = 3); for IC50 decrease from 48 to 72 h in HT-29: ratio of IC50 at 48 h vs 72 h (Figure S1)
Experimental: as §2

CCD18-Co cells = experiment: MTT antiproliferative assay in non-tumorigenic CCD18-Co cells; format: cell-based; details: Homo sapiens, CCD-18Co, 72 h, non-tumorigenic colon cells
Experimental: as §2

[7] = parameters: method as in PMID 35981285; details: cited from earlier work
[8] = 48 h, read-out: IC50 Caco-2 (48 h)
[9] = 72 h, read-out: IC50 Caco-2 (72 h)
[10] = 48 h, read-out: IC50 HT-29 (48 h)
[11] = 72 h, read-out: IC50 HT-29 (72 h)

| SMILES | IC50 (Caco-2 cells [2]; [8]) [µM] | IC50 (Caco-2 cells [2]; [9]) [µM] | IC50 (HT-29 cells [6]; [10]) [µM] | IC50 (HT-29 cells [6]; [11]) [µM] | IC50 decrease from 48 to 72 h in HT-29 (HT-29 cells [6]) | cell cycle phase increase vs control (Caco-2 cells [1]) | IC50 decrease from 48 to 72 h in Caco-2 (Caco-2 cells [2]; ratio of IC50 at 48 h vs 72 h (Figure S1)) [fold] | compound metabolized by HT-29 cells after 24 h (HT-29 cells [3]) | compound metabolized by Caco-2 cells after 72 h (Caco-2 cells [4]) | late-phase apoptotic cells vs control cells (Caco-2 cells [5]) | early-phase apoptotic cells vs control cells (Caco-2 cells [5]) | IC50 (CCD18-Co cells) [µM] | concentration reached in the human colon [7] [µM] |
| --- | --- | --- | --- | --- | --- | --- | --- | --- | --- | --- | --- | --- | --- |
| Oc1ccc(/C=C/c2ccccc2)cc1 [4HST, 4-Hydroxy-trans-stilbene] | 26.9 ± 8 | 11.4 ± 10.1 | 34 ± 8.1 | 24.4 ± 11.3 | 1.4 fold | significant increase (p < 0.05) was observed at both phases, S and G2/M | 5 | fully metabolized | hardly metabolized | significant differences (p < 0.05) |  |  |  |
| Oc1ccc(CCc2ccccc2)cc1 [4HDB, 4-(2-phenylethyl)phenol] | > 100 | 56.9 ± 8 | > 100 | 96.7 ± 6.7 |  |  |  |  |  |  |  |  |  |
| Oc1cc(O)cc(/C=C/c2ccc(O)cc2O)c1 [Oxy-RSV, 3,5,2′,4′-tetrahydroxy-trans-stilbene] | 74.7 ± 11.5 | 55.4 ± 2.5 | 96.7 ± 2.4 | 83.4 ± 5.8 |  |  |  |  |  | significant differences (p < 0.05) | statistically significant (p < 0.05) |  |  |
| Oc1ccc(C=Cc2cccc(O)c2)cc1 [DHST, 3-(4-hydroxystyryl)phenol] | 57.1 ± 10.2 | 22.7 ± 6.4 | 64.8 ± 15.6 | 48.3 ± 17.8 |  | significant increase (p < 0.05) was observed at both phases, S and G2/M |  |  |  | significant differences (p < 0.05) | statistically significant (p < 0.05) |  |  |
| Oc1ccc(CCc2cc(O)cc(O)c2)cc1 [DHRSV, Dihydroresveratrol] | 55.4 ± 10.8 | 33.8 ± 17.8 | > 100 | 69 ± 9.3 |  |  |  |  |  |  | statistically significant (p < 0.05) | 53 | > 100 |
| OCc1ccc(/C=C/c2ccccc2)cc1 [4STMe, trans-4-stilbenemethanol] | 88.3 ± 14.6 | 59.9 ± 23.1 | 85.4 ± 16.5 | 57.1 ± 18.9 |  |  |  |  |  |  | statistically significant (p < 0.05) |  |  |
| Oc1cc(O)cc(CCc2ccccc2)c1 [DHP, 3-hydroxy-(5-phenethyl)phenol] | 54 ± 3.1 | 73.9 ± 13.8 | > 100 | 82.4 ± 12.1 |  |  |  |  |  |  | statistically significant (p < 0.05) |  |  |
| Oc1cccc(CCc2ccccc2)c1 [3HDB, 3-(2-phenylethyl)phenol] | > 100 | 42.9 ± 4.1 | > 100 | 81.7 ± 15.5 |  |  |  |  |  |  | statistically significant (p < 0.05) |  |  |

Further lines, with some results ahead:

| IC50 (Caco-2 cells [2]; [8]) [µM] | IC50 (Caco-2 cells [2]; [9]) [µM] | IC50 (HT-29 cells [6]; [10]) [µM] | IC50 (HT-29 cells [6]; [11]) [µM] | IC50 decrease from 48 to 72 h in HT-29 (HT-29 cells [6]) | SMILES | cell cycle phase increase vs control (Caco-2 cells [1]) | IC50 decrease from 48 to 72 h in Caco-2 (Caco-2 cells [2]; ratio of IC50 at 48 h vs 72 h (Figure S1)) [fold] | compound metabolized by HT-29 cells after 24 h (HT-29 cells [3]) | compound metabolized by Caco-2 cells after 72 h (Caco-2 cells [4]) | late-phase apoptotic cells vs control cells (Caco-2 cells [5]) | early-phase apoptotic cells vs control cells (Caco-2 cells [5]) | IC50 (CCD18-Co cells) [µM] | concentration reached in the human colon [7] [µM] |
| --- | --- | --- | --- | --- | --- | --- | --- | --- | --- | --- | --- | --- | --- |
| 55.4 ± 10.8 | 42 ± 9.8 | 78.5 ± 5.7 | 69.5 ± 4.6 |  | Oc1cc(O)cc(/C=C/c2ccc(O)c(O)c2)c1 [PICE, 3,5,3′,4′-tetrahydroxy-trans-stilbene] |  |  |  |  | significant differences (p < 0.05) | statistically significant (p < 0.05) |  |  |
| 84.5 ± 11.7 | 50.5 ± 23.1 | > 100 | 53.2 ± 6.8 |  | Oc1ccc(CCc2cccc(O)c2)cc1 [LUNU, 3-(4-hydroxyphenethyl)phenol] |  |  |  |  |  |  | 67 | > 100 |
| 67.6 ± 12.3 | 43 ± 11.6 | 45.1 ± 13.7 | 37.9 ± 5.4 |  | COc1cc(/C=C/c2ccc(O)cc2)cc(OC)c1 [PTERO, 3,5-dimethoxy, 4′-hydroxy-trans-stilbene] | significant increase (p < 0.05) was observed only at the G2/M phase |  |  |  | significant differences (p < 0.05) | statistically significant (p < 0.05) |  |  |
| 55.3 ± 12.7 | 26.4 ± 7.1 | 37.5 ± 14.3 | 38.1 ± 8 | no change | Oc1cc(O)cc(/C=C/c2ccccc2)c1 [PINO, 3,5-dihydroxy-trans-stilbene] |  |  |  |  |  | statistically significant (p < 0.05) |  |  |
| 50.4 ± 3.4 | 18.8 ± 1.6 | 68.9 ± 22.6 | 59.1 ± 9.9 |  | Oc1ccc(/C=C/c2cc(O)cc(O)c2)cc1 [RSV, 3,5,4′-trihydroxy-trans-stilbene] |  |  | 100% | 14% | significant differences (p < 0.05) |  |  |  |
